The values below come from patent US7662853B2, “Monoacetyldiacylglycerol derivative for the treatment of sepsis” (priority 2004, dated 2010).

SMILES strings stand for the structures.

Assay [1] deals with Monocytes. As to the kind of experiment: Monocytes proliferation (3H-thymidine incorporation, SI). The class given is cell-based. As to conditions: human monocytes, 1 μg/ml, 7th day. The protocol: Monocytes were isolated from human whole blood using Histopaque 1077. And then, monocytes (5×10^6 cells/ml) were allowed to adhere to tissue culture flask for 3 hours in a 5% CO2 incubator. After 3 hours, non-adherent cells were removed and adherent cells were placed in 96-well plates in RPMI 1640 medium (GIBCO, Grand Island, N.Y.) supplemented with 10% FBS. 5×10^4 viable cells per well were cultured in 96-well plates, with 1 μg/ml of Compound 1˜5. On the 6th day, cells were incubated with 1 μCi ^3H-thymidine/well for 24 hours. On the 7th day, the cells were harvested and the incorporation of ^3H-thymidine was measured. Si was calculated by the above mentioned formula 1.
A general note: Uptake of a labelled nucleoside into DNA is a usual measure of proliferation.

Assay [2] has as its system T-cells. As to the kind of experiment: T-cell proliferation (3H-thymidine incorporation, SI). The class given is cell-based, C57BL/6 mice. As to conditions: 1 μg/ml, 7th day, CPM in sample/CPM in control. The source says:
Splenocytes were collected from C57BL/6 mice (provided from Asan Institute for Life Sciences Animal Lab., Seoul, Korea) spleens. Then, single cell suspensions were obtained by repeated aspiration and flushing. Red blood cells were removed using ammonium chloride and then passed through nylon wool to remove debris and clumps. T-cells were purified using magnetic bead (MACS bead, Miltenyi Biotec, bergich gladbach, Germany) containing anti-goat IgG MACS bead, Miltenyi Biotec, bergich gladbach, Germany) or anti-mouse CD4 (MACS bead, Miltenyi Biotec, bergich gladbach, Germany) or anti-mouse CD8 antibody (MACS bead, Miltenyi Biotec, bergich gladbach, Germany) (Turner and Dockrell (1996) Immunology, 87: 339-342).
T cell suspensions were suspended in Isocove's modified Dulbecco's medium (IMDM, Gibco, Grand Island, N.Y.) supplemented with 10% fetal bovine serum (referred as ‘FBS’ hereinafter) (Gibco, Grand Island, N.Y.). […] On the 6th day, cells were incubated with 1 μCi ^3H-thymidine/well for 24 hours. On the 7th day, the cells were harvested and the […] (referred as ‘SI’ hereinafter) was calculated by the following Mathematical Formula 1. SI=^3H-thymidine absorbed by wells of experimental group (CPM in sample)/^3H-thymidine absorbed by wells of control group (CPM in control) [Mathematical Formula 1]

As for `CCCCCCCC/C=C\CCCCCCCC(=O)OCC(COC(C)=O)OC(=O)CCCCCCCCCCCCCCC` (centres unmarked) [Compound 1, 1-oleoyl-2-2palmitoyl-3-acetylglycerol], in assay [1], the “SI (±S.E)” value was found to be 9.97 ± 0.10. The molecule further showed an SI in assay [2] of 2.01 ± 0.43.
On the same counts, the results for `CCCCCCCC/C=C\CCCCCCCC(=O)OC(COC(C)=O)COC(=O)CCCCCCCCCCCCCCC` (centres unmarked) [Compound 2, 1-palmitoyl-2-oleoyl-3-acetylglycerol] are 10.42 ± 0.15 and 2.03 ± 0.54.
For `CC/C=C\C/C=C\C/C=C\CCCCCCCC(=O)OC(COC(C)=O)COC(=O)CCCCCCCCCCCCCCC` (centres unmarked) [Compound 4, 1-palmitoyl-2-linolenoyl-3-acetylglycerol], the “SI (±S.E)” value in assay [1] came out at 10.21 ± 0.18. In assay [2], this molecule displayed an SI of 1.98 ± 0.26.
The corresponding values for `CCCCC/C=C\C/C=C\C/C=C\C/C=C\CCCC(=O)OC(COC(C)=O)COC(=O)CCCCCCCCCCCCCCC` (centres unmarked) [Compound 5, 1-palmitoyl-2-arachidonoyl-3-acetylglycerol] are 9.75 ± 0.09 and 2.02 ± 0.38.
